The values that follow come from ChEMBL document CHEMBL4385598, “A comprehensive review of topoisomerase inhibitors as anticancer agents in the past decade” (Eur J Med Chem, 2019).

One assay has as its system HL-60. Put plainly: Antitumor activity against human HL60 cells assessed as reduction in cell viability by MTT assay. Type of assay: functional, cell-based.
The next assay relates to L1210. The experiment in a line: Antitumor activity against mouse L1210 cells assessed as reduction in cell viability by MTT assay. The class given is functional, cell-based.
Assay [1] deals with T1, DNA topoisomerase I (Bos taurus) (UniProt F1MN93).
T1 sequence (whole entry): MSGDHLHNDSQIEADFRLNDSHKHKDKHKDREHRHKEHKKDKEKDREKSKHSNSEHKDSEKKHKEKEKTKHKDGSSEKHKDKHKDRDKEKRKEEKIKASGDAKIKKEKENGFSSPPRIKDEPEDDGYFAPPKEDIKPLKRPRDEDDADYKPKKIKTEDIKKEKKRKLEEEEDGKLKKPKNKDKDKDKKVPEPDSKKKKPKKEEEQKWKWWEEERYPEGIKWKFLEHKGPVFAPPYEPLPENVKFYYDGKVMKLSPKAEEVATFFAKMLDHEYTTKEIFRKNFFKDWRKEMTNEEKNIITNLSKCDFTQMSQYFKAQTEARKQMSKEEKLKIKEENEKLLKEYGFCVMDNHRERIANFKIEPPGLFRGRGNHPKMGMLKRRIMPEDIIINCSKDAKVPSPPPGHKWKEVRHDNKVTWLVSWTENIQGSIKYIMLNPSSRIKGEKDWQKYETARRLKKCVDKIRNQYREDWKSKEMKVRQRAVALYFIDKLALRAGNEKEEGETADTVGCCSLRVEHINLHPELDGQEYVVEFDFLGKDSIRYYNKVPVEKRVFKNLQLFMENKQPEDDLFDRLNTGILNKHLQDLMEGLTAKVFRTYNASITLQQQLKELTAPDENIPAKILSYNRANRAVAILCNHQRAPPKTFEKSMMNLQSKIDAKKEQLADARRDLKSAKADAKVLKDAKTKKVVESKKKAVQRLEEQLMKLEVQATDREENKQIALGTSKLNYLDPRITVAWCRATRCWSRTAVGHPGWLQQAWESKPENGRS
Put plainly: Inhibition of calf thymus DNA topoisomerase 1 using supercoiled pBR322 plasmid DNA as substrate at 20 uM after 30 mins by agarose gel electrophoresis method relative to control.

In the next assay the test system is Ca-Ski. The experiment in a line: Cytotoxicity against human CaSki cells assessed as reduction in cell growth incubated for 48 hrs by SRB assay. The class given is functional, cell-based.
Assay [2] deals with HeLa. The experiment in a line: Cytotoxicity against human HeLa cells assessed as reduction in cell growth incubated for 48 hrs by SRB assay. The class given is functional, cell-based.
A further assay deals with HCT-116. The experiment in a line: Cytotoxicity against human HCT116 cells assessed as reduction in cell growth by WST-1 assay. The class given is functional, cell-based.
A further assay has as its system T47D. The experiment in a line: Cytotoxicity against human T47D cells assessed as reduction in cell growth preincubated for 4 hrs in FBS starvation condition followed by incubation for 2 days by CCK8-based cell counting method. The class given is functional.
The target in assay [3] is DNA topoisomerase 2-alpha (Homo sapiens) (UniProt P11388). Put plainly: Inhibition of human DNA topoisomerase 2 using supercoiled pBR322 plasmid DNA as substrate at 20 uM after 30 mins by agarose gel electrophoresis method relative to control.
Chain of DNA topoisomerase 2-alpha (Homo sapiens) (P11388 whole entry): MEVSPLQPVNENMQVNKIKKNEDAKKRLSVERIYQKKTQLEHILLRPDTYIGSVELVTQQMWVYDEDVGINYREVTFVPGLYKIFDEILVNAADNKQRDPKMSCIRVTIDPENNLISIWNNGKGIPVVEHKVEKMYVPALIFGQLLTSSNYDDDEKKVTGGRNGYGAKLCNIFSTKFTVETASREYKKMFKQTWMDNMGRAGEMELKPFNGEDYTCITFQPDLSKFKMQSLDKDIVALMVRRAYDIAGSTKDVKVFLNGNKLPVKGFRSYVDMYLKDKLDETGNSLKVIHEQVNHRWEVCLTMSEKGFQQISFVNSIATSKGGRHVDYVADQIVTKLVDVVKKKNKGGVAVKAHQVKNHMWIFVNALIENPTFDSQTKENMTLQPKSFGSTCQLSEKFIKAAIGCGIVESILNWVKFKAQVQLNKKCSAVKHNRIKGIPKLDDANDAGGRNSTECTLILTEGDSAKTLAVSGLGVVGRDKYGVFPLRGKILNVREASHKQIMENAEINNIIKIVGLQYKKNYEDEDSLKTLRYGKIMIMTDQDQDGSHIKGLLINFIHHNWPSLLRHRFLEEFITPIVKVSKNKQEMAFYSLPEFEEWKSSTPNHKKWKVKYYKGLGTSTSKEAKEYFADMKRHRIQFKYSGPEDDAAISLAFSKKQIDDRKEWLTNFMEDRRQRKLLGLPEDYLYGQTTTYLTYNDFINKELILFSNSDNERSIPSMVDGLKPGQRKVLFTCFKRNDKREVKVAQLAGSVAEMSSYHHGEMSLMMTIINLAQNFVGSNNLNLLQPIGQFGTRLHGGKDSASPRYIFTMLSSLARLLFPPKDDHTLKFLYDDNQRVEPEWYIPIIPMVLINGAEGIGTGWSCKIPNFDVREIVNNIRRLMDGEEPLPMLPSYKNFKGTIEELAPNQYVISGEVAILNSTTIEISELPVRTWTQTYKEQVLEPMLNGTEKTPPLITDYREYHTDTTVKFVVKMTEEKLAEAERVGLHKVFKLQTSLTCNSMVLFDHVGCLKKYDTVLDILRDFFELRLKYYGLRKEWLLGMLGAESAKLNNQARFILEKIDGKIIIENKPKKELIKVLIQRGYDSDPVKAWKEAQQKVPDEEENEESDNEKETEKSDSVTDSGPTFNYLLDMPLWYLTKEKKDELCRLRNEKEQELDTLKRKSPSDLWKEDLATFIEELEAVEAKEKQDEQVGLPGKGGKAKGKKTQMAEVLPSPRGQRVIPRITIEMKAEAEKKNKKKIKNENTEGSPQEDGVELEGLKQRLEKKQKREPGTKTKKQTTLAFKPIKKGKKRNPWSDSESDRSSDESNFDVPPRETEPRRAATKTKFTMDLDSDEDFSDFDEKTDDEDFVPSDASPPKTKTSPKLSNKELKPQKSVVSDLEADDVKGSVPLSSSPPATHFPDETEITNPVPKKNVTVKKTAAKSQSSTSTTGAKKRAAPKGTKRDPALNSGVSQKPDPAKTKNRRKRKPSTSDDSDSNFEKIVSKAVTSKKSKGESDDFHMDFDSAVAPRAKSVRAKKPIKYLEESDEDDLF
The subject of another assay is A549. The experiment in a line: Cytotoxicity against human A549 cells assessed as reduction in cell viability incubated for 24 hrs by MTT assay. Type of assay: functional, cell-based. As to conditions: A549, 24 h.
For a further assay, the system named is K562/A02. The experiment in a line: Antiproliferative activity against human K562/A02 cells assessed as reduction in cell growth incubated for 48 hrs by MTT assay. To be noted: K562/A02, 48 h. Type of assay: functional, cell-based.
The next assay concerns K562. Put plainly: Antiproliferative activity against human K562 cells assessed as reduction in cell growth incubated for 48 hrs by MTT assay. The class given is functional, cell-based. As to conditions: K562, 48 h.
Assay [4] relates to HeLa. Put plainly: Antiproliferative activity against human HeLa cells assessed as reduction in cell growth incubated for 48 hrs by MTT assay. The class given is functional, cell-based.

Consider `O=C(N/N=C/c1ccccc1[N+](=O)[O-])c1cn(C2CC2)c2cc(N/N=C/c3ccccc3[N+](=O)[O-])c(F)cc2c1=O`, for which the IC50 with HL-60 and with L1210 was no more than 25 µM throughout.

In assay [1], `CC[C@@]1(O)C(=O)OCc2c1cc1n(c2=O)Cc2cc3ccccc3nc2-1` registered an inhibition of 51%. Regarding `COc1cc(CN2CCN(c3cccc(Cl)c3)CC2)c2cc3[n+](cc2c1OC)CCc1cc2c(cc1-3)OCO2.[Cl-]`, the IC50 in the assay with Ca-Ski and with HeLa [2] was less than 6 µg/mL throughout.

For the molecule `COc1cc(CN2CCN(c3ccccc3F)CC2)c2cc3[n+](cc2c1OC)CCc1cc2c(cc1-3)OCO2.[Cl-]`, the IC50 in the assay on Ca-Ski and in the assay with HeLa [2] was less than 6 µg/mL each time. As for `O=c1c(O)c(-c2cc(O)c(O)c(O)c2)oc2cc(O)cc(O)c12` [MYRICETIN], the IC50 in the assay with HCT-116 is 28.2 µM. As for `COc1cc(CN2CCN(c3ccc(OC(F)(F)F)cc3)CC2)c2cc3[n+](cc2c1OC)CCc1cc2c(cc1-3)OCO2.[Cl-]`, the half-inhibitory concentration (IC50) in the assay with Ca-Ski and in the assay with HeLa [2] was less than 6 µg/mL each time. Turning to `O=C(N/N=C/c1ccc(F)cc1)c1cn(C2CC2)c2cc(N/N=C/c3ccc(F)cc3)c(F)cc2c1=O`, the concentration for half-maximal inhibition (IC50) with HL-60 and in the assay on L1210 was no more than 25 µM throughout. With `Oc1cccc(-c2cc(-c3ccccc3Cl)cc(-c3ccccc3)n2)c1`, in the assay on T47D, the concentration for half-maximal inhibition (IC50) lay in the range of 0.68 to 1.25 µM. As for `CCCCC[C@H](O)[C@@H](O)/C=C/[C@@H](O)CCCCCCCC(=O)O`, the values for the inhibition in [1] and in [3] were 41% and 97%, respectively. `O=C(N/N=C/c1ccccc1O)c1cn(C2CC2)c2cc(N/N=C/c3ccccc3O)c(F)cc2c1=O`: the IC50 in the assay on HL-60 and with L1210 was no more than 25 µM in each case. `O=C(N/N=C/c1ccc(F)cc1)c1cn(C2CC2)c2cc(N3CCNCC3)c(F)cc2c1=O`: the IC50 in the assay with HL-60 and with L1210 was no more than 25 µM each time. Take `COc1ccc(/C=N/NC(=O)c2cn(C3CC3)c3cc(N/N=C/c4ccc(OC)cc4)c(F)cc3c2=O)cc1`: the IC50 in the assay on HL-60 and in the assay with L1210 was no more than 25 µM throughout. Take `CCCCCCCCCCCCCCCC(=O)O` [PALMITIC ACID]: the IC50 in the assay with A549 was 150 µM. `Oc1cccc(-c2cc(-c3cccc(Cl)c3)cc(-c3cccs3)n2)c1`: the IC50 in the assay on T47D was 0.68 to 1.25 µM. As for `COc1cc(CN2CCN(c3ccccc3Cl)CC2)c2cc3[n+](cc2c1OC)CCc1cc2c(cc1-3)OCO2.[Cl-]`, the IC50 in the assay with Ca-Ski and with HeLa [2] was less than 6 µg/mL throughout. For the molecule `COc1cc(CN2CCN(c3ccccc3[N+](=O)[O-])CC2)c2cc3[n+](cc2c1OC)CCc1cc2c(cc1-3)OCO2.[Cl-]`, the IC50 in the assay on Ca-Ski and in the assay with HeLa [2] was less than 6 µg/mL throughout. `O=C(N/N=C/c1ccccc1[N+](=O)[O-])c1cn(C2CC2)c2cc(N3CCNCC3)c(F)cc2c1=O`: the IC50 in the assay on HL-60 and in the assay with L1210 was no more than 25 µM in each case. As for `Oc1cccc(-c2cc(-c3ccccc3Cl)cc(-c3ccsc3)n2)c1`, the half-inhibitory concentration (IC50) in the assay on T47D is 0.68 to 1.25 µM.

As to `Oc1cccc(-c2cc(-c3ccc(Cl)cc3)cc(-c3ccco3)n2)c1`, the IC50 with T47D fell in the range of 0.68 to 1.25 µM.

Regarding `Oc1cccc(-c2cc(-c3cccc(Cl)c3)cc(-c3ccco3)n2)c1`, the 50% inhibitory concentration (IC50) in the assay with T47D fell in the range of 0.68 to 1.25 µM. The same measure, in the same setting: the same measure for `Oc1cccc(-c2cc(-c3cccc(Cl)c3)cc(-c3ccccc3)n2)c1`: 0.68 to 1.25 µM.

For `COc1cc(/C=N/NC(=O)c2cn(C3CC3)c3cc(N4CCNCC4)c(F)cc3c2=O)cc(OC)c1OC`, the half-maximal inhibitory concentration (IC50) with HL-60 and with L1210 was no more than 25 µM each time. Regarding `COc1cc(CN2CCN(c3ccc(C)cc3)CC2)c2cc3[n+](cc2c1OC)CCc1cc2c(cc1-3)OCO2.[Cl-]`, the IC50 with Ca-Ski and in the assay with HeLa [2] was less than 6 µg/mL in each case. For the molecule `O=C(N/N=C/c1ccc2c(c1)OCO2)c1cn(C2CC2)c2cc(N/N=C/c3ccc4c(c3)OCO4)c(F)cc2c1=O`, the IC50 in the assay on HL-60 and in the assay on L1210 was no more than 25 µM each time.

Consider `COc1cc(CN2CCN(c3ccc([N+](=O)[O-])cc3)CC2)c2cc3[n+](cc2c1OC)CCc1cc2c(cc1-3)OCO2.[Cl-]`, for which the IC50 in the assay on Ca-Ski and with HeLa [2] was less than 6 µg/mL each time. Regarding `COc1ccc(/C=N/NC(=O)c2cn(C3CC3)c3cc(N/N=C/c4ccc(OC)c(O)c4)c(F)cc3c2=O)cc1O`, the IC50 in the assay with HL-60 and in the assay with L1210 was no more than 25 µM in each case. Turning to `COc1ccc(/C=N/NC(=O)c2cn(C3CC3)c3cc(N4CCNCC4)c(F)cc3c2=O)cc1`, the IC50 in the assay with HL-60 and in the assay with L1210 was no more than 25 µM in each case.

In the case of `Oc1cccc(-c2cc(-c3cccc(Cl)c3)cc(-c3ccsc3)n2)c1`, the IC50 with T47D lay in the range of 0.68 to 1.25 µM. On to `COc1cc([C@@H]2c3cc4c(cc3[C@@H](NC/C=C/c3ccc(CN5CCN(c6ccc([N+](=O)[O-])cc6)CC5)o3)[C@H]3COC(=O)[C@H]23)OCO4)cc(OC)c1OC`, for which the IC50 turned out to be 6.89 µM in the assay with K562/A02, 6.42 µM in the assay with K562 and 7.93 µM with HeLa [4]. For `O=C(N/N=C/c1ccc2c(c1)OCO2)c1cn(C2CC2)c2cc(N3CCNCC3)c(F)cc2c1=O`, the half-maximal inhibitory concentration (IC50) in the assay with HL-60 and with L1210 was no more than 25 µM each time. Turning to `COc1cc(CN2CCN(c3ccc(Cl)cc3)CC2)c2cc3[n+](cc2c1OC)CCc1cc2c(cc1-3)OCO2.[Cl-]`, the half-inhibitory concentration (IC50) with Ca-Ski and in the assay on HeLa [2] was less than 6 µg/mL in each case. Regarding `Oc1cccc(-c2cc(-c3ccc(Cl)cc3)cc(-c3ccsc3)n2)c1`, the IC50 with T47D is 0.68 to 1.25 µM.

For `COc1ccc(/C=N/NC(=O)c2cn(C3CC3)c3cc(N4CCNCC4)c(F)cc3c2=O)cc1O`, the 50% inhibitory concentration (IC50) in the assay on HL-60 and with L1210 was no more than 25 µM in each case.

Consider `O=C(N/N=C/c1ccccc1)c1cn(C2CC2)c2cc(N3CCNCC3)c(F)cc2c1=O`, for which the IC50 with HL-60 and in the assay on L1210 was no more than 25 µM throughout.

Take `COc1cc(CN2CCN(c3ccc(F)cc3)CC2)c2cc3[n+](cc2c1OC)CCc1cc2c(cc1-3)OCO2.[Cl-]`: the half-inhibitory concentration (IC50) with Ca-Ski and in the assay on HeLa [2] was less than 6 µg/mL each time.

With `O=C(N/N=C/c1ccccc1)c1cn(C2CC2)c2cc(N/N=C/c3ccccc3)c(F)cc2c1=O`, the IC50 in the assay with HL-60 and in the assay with L1210 was no more than 25 µM each time. With `COc1cc(CN2CCN(c3ccc(C(F)(F)F)cc3)CC2)c2cc3[n+](cc2c1OC)CCc1cc2c(cc1-3)OCO2.[Cl-]`, the IC50 in the assay on Ca-Ski and with HeLa [2] was less than 6 µg/mL in each case.

For the molecule `Oc1ccc(-c2cc(-c3ccccc3Cl)cc(-c3ccco3)n2)cc1`, in the assay on T47D, the IC50 was 0.68 to 1.25 µM. As to `COc1cc(/C=N/NC(=O)c2cn(C3CC3)c3cc(N/N=C/c4cc(OC)c(OC)c(OC)c4)c(F)cc3c2=O)cc(OC)c1OC`, the IC50 in the assay on HL-60 and in the assay with L1210 was no more than 25 µM each time.

For the molecule `Oc1cccc(-c2cc(-c3ccc(Cl)cc3)cc(-c3ccccc3)n2)c1`, the IC50 in the assay on T47D fell in the range of 0.68 to 1.25 µM. Take `O=C(N/N=C/c1ccccc1O)c1cn(C2CC2)c2cc(N3CCNCC3)c(F)cc2c1=O`: the half-maximal inhibitory concentration (IC50) in the assay on HL-60 and in the assay on L1210 was no more than 25 µM throughout.
